{"source": "patent US20040234555A1", "about": "“Swine growth promoters and method of promoting swine growth” (priority 2001, published 2004)", "key": {"[1]": {"system": "piglets", "experiment": "Growth of piglets given feed with the additive from the 14th day after birth (Example 2)", "format": "in vivo, pig", "method": "Using piglets born during a period of from October through November in 2000, feeding was carried out on the 14th day after their birth. […] In this case, the test was carried out using 10 head in each plot, and the average values were calculated."}, "[2]": {"system": "Large Yorkshire piglets", "experiment": "Growth and blood examination of piglets after a single administration on the third day after birth (Example 1)", "description": "Thereafter, usual management was carried out, feeding was started on the 14th day after birth, and body weights were measured and blood samples were collected on the 21st day after birth to carry out inspections in accordance with usual way. Also, body weights were measured at the time of shipping after about 6 months, and the number of days reaching a shipping body weight criterion of 110 kg (required days for 110 kg) was calculated. The tests were carried out using 12 animals in each plot, and the values were calculated as average values by excluding pigs which came off the test due to a disease and the like.\nDG (daily gain; kg/day)=shipping body weight (kg)÷raised days (day)\nRequired days for 110 kg (day)=110 (kg)÷DG (kg/day)"}, "[3]": {"conditions": "21st day after birth, treatment on 3rd day after birth"}}, "data": [{"smiles": "Cl.NCC(=O)CCC(=O)O", "note": "[ALA, 5-aminolevulinic acid hydrochloride]", "values": [{"measurement": "Required days for 110 kg", "setting": "[1]; 10 mg 5-aminolevulinic acid hydrochloride per 1 kg feed, with or without 10 mg ferric ammonium citrate per 1 kg feed, 10 head per plot", "result": 172}, {"measurement": "Growth (in words)", "setting": "[1]; feed additive from 14th day after birth", "result": "markedly enhanced"}, {"measurement": "Body weight: relative value to 100 at the commencement of the test on the 3rd day after birth", "setting": "[2]; 21st day after birth", "result": 233, "unit": "%"}, {"measurement": "B12: vitamin B12 concentration in serum", "setting": "[2]; [3]", "result": 240, "unit": "pg/mL"}, {"measurement": "Fe: serum iron concentration in serum", "setting": "[2]; [3]", "result": 44, "unit": "µg/dL"}, {"measurement": "Hb: hemoglobin concentration in whole blood sample", "setting": "[2]; [3]", "result": 8.5, "unit": "g/dL"}, {"measurement": "Ht: blood cell volume ratio in whole blood sample", "setting": "[2]; [3]", "result": 30.5, "unit": "%"}, {"measurement": "TP: total serum protein concentration in serum", "setting": "[2]; [3]", "result": 5.8, "unit": "g/dL"}, {"measurement": "Required days for 110 kg (number of days reaching shipping body weight criterion of 110 kg)", "setting": "[2]; calculated from shipping body weight after about 6 months, 110 kg ÷ daily gain", "result": 183, "unit": "days"}, {"measurement": "Frequency of disease onset", "setting": "[2]; examination about 6 months after birth, 12 animals per plot", "result": 0}, {"measurement": "Pigs which came off the test system due to a disease", "setting": "[2]; in and after the 21st day", "result": "diseases were not found"}, {"measurement": "Pigs which came off the test plots due to a disease and the like", "setting": "[2]; until the 21st day after birth", "result": "not found"}]}]}
